From article PMC8273890, “Development of [^18F]AldoView as the First Highly Selective Aldosterone Synthase PET Tracer for Imaging of Primary Hyperaldosteronism” (Journal of Medicinal Chemistry, 2021)
“Also recorded” adds a separate entry of the source.

How the values were obtained:
human CYP11B2 [1] = test system: human CYP11B2; parameters: method as in PMID 26005536; settings: cited from earlier work
hCYP11B1 = test system: hCYP11B1; parameters: method as in PMID 26005536; settings: read-out: IC50 CYP11B1; cited from earlier work
human CYP11B2 [2] = assay: Inhibition of human CYP11B2 (aldosterone synthase), literature values; assay type: biochemical; settings: human isoforms
[3] = Dynamic PET/CT imaging in mice; assay type: in vivo, female BALB/c mice; settings: PET
Description: Dynamic PET imaging was performed using a nanoScan PET-CT system manufactured by Mediso (Medical Imaging Systems, Budapest, Hungary). Mice (n = 6) were anaesthetized with isoflurane (2% v/v in oxygen) and placed on the preheated bed of the scanner (set at 38 °C). [^18F]AldoView (7.3 ± 4.1 MBq, formulated in 100–150 μl saline containing 5% ethanol) was injected into the tail vein via intravenous cannulation. After injection, the catheter was carefully removed. The breathing rate and body temperature of the animals were closely monitored during the dynamic PET scans and, if necessary, the isoflurane dose was adjusted. Scans were recorded over 1 h, and the animals were subsequently sacrificed by cervical dislocation. Quantification of the tissue uptake (in % ID/g) was carried out based on the regions of interest manually drawn on the CT using the software package VivoQuant 1.23 (inviCRO, Boston, USA).

[4] = Ex vivo biodistribution in mice (gamma counting); parameters: species or system female BALB/c mice
Description: [^18F]AldoView (6.6 ± 1.9 MBq, formulated in saline containing 5% ethanol) was administered intravenously into the tail vein of female wild-type BALB/c mice (n = 3–4 per time point) without anesthesia. At designated time points (15, 30, 60, and 120 min postinjection), animals were anesthetized with isoflurane (4% v/v in oxygen) and the blood was taken by cardiac puncture. Mice were subsequently sacrificed by cervical dislocation. The organs of interest were sampled and weighed, and the radioactivity content was measured by automated gamma counting (PerkinElmer Wizard^2). Results were expressed as % ID/g bodyweight.

[5] = Blood/plasma metabolite analysis by radio-HPLC; assay type: in vivo, female BALB/c mice
Description: Blood metabolite analysis was performed as part of the biodistribution studies (n = 2–3 per time point). Blood samples were collected in heparin-coated tubes, and an aliquot (20 μL) was taken for gamma counting. After centrifugation (5 min, 13,000 rpm), the plasma (∼500 μL) was separated. Plasma proteins were subsequently precipitated with ice-cold acetonitrile (1 mL), and samples were centrifuged (5 min, 13,000 rpm). An aliquot of the supernatant (500 μL) was separated from the pellet and diluted with water (500 μL). The recovery of radioactivity in the supernatant was near quantitative (>95%). Analysis was carried out by radio-HPLC using a Phenomenex Onyx monolithic C-18 column (100 × 10 mm). The mobile phase consisted of water and methanol, and the flow rate was 5 mL/min. An isocratic eluent (10% methanol in water) was used for 3 min, followed by a gradient from 10 to 70% methanol over 7 min.

CYP11B2 = biological target: T1, CYP11B2 (Homo sapiens, UniProt P19099); assay: Quantitative phosphorimaging (in vitro autoradiography) in human adrenal tissue sections; assay type: binding; settings: for NSB (non-specific binding): with 25 μM AldoView
T1 construct: from tissue
T1 sequence (P19099 25-503): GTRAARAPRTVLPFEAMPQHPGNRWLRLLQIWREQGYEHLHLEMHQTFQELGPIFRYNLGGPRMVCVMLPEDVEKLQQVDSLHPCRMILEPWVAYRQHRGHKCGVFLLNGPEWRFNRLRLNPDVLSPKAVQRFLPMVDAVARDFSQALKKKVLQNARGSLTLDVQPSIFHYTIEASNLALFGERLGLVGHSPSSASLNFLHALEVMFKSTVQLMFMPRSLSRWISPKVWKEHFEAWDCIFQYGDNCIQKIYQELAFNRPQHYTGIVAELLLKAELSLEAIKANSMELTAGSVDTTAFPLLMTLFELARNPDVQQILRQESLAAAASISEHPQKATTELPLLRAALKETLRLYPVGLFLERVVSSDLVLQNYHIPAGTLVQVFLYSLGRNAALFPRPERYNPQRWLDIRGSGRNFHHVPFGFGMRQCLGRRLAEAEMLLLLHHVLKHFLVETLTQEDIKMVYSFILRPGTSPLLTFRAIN
Excerpt: Adrenal surgical specimens were obtained from patients with Conn’s disease, Cushing’s disease, pheochromocytoma, and adrenal tumors, who had consented to the use of their tissue for research applications. Ethical approval was obtained from the UK Multicentre Research Ethics Committee (06/Q0104/133). Following routine adrenalectomy, surgical specimens were immediately flash frozen using a slurry of isopentane and dry ice. Cryosections (20 μm) obtained from the frozen tissue blocks were mounted on lysine-coated microscope slides and stored at −80 °C.
Thawed tissue sections on microscopic slides were dipped in pentane for 5 s to degrease the tissue. This step was required to avoid nonspecific binding (NSB), in particular to medullar fat. Tissue sections were subsequently rehydrated in tris-buffered saline (TBS; pH = 7.5) for 30 min and subsequently incubated with a solution of [^18F]AldoView in TBS for 60 min (1 mL per slide). For determination of the total binding (TB), [^18F]AldoView was diluted with TBS to a concentration of 2 MBq/mL. For the determination of NSB, a solution of the nonradioactive reference compound in ethanol (3.5 mM) was added to a solution of [^18F]AldoView in TBS and diluted to give a final AldoView concentration of 25 μM and a final [^18F]AldoView concentration of 2 MBq/mL. After incubation, unbound [^18F]AldoView was removed by washing the sections in ice-cold TBS (three times for 5 min) and water (1 min). Internal standards were prepared by serial dilution of the [^18F]AldoView solution used for determination of the TB. Tissue sections and internal standards absorbed on filter paper were left to air-dry and subsequently exposed to a phosphor screen (BAS-IP MS; GE Healthcare) overnight. Phosphorimaging was performed on a Typhoon Trio scanner (GE Healthcare). All phosphorimaging experiments were performed in at least three adjacent tissue sections per case, tissue block, and experimental condition (TB, NSB). Quantification of phosphor images was performed using the analysis software ImageJ (version 1.48).[28] Determination of TB and NSB (in kBq/cm^2; Table S1) was based on correlation curves generated from the internal standards. The specific [^18F]AldoView binding was calculated as the difference between TB and NSB.

[6] = biodistribution, 15 min postinjection
[7] = biodistribution, 30 min postinjection (peak)
[8] = specimen 1b (high), case 1, PHA
[9] = specimen 2b (high), case 2, PHA
[10] = specimen 2c (high), case 2, PHA
[11] = specimen 3b (high), case 3, PHA
[12] = specimen 6a, case 6, pheochromocytoma
[13] = specimen 6b, case 6, pheochromocytoma
[14] = specimen 7a, case 7, adrenal tumor

Fc1cncc(-c2nc3cc(F)c(F)cc3n2C2CC2)c1 [Compound 3, 1-Cyclopropyl-5,6-difluoro-2-(5-fluoropyridin-3-yl)-1H-benzo[d]imidazole, reference compound]
IC50 (human CYP11B2 [1]): 4.7 nM
IC50 (hCYP11B1): 435 nM

Fc1cc2nc(-c3cncc([18F])c3)n(C3CC3)c2cc1F [[^18F]AldoView]
hCYP11B2 selectivity (B2/B1 ratio) (human CYP11B2 [2]): 93
time for liver activity to decrease to half the peak value [3]: ≤ 30 min
peak liver activity ([3]; at 6 min postinjection): 48 ± 11 % ID/g
level of activity in muscle ([3]; knee extensors, throughout scan (1 h)): < 1.5 % ID/g
time of peak liver activity ([3]; postinjection): 6 min
ratio between tracer uptake in adrenals and kidneys ([4]; 15 min postinjection): 1.2
activity level in kidneys [4, 6]: 5.2 ± 3.5 % ID/g
activity level in liver [4, 6]: 11.8 ± 4.1 % ID/g
activity level in small intestines [4, 6]: 4.3 ± 4.7 % ID/g
activity level in adrenals ([4]; biodistribution, 15 min postinjection, n = 2): 6.1 % ID/g
activity level in adrenals ([4]; biodistribution, 30 min postinjection): 4.0 ± 2.5 % ID/g
activity level in kidneys [4, 7]: 5.7 ± 2.9 % ID/g
activity level in liver [4, 7]: 12.4 ± 5.9 % ID/g
activity level in adrenals ([4]; biodistribution, 60 min postinjection): 1.8 ± 1.1 % ID/g
intact parent fraction in blood ([5]; 15 min postinjection): 59%
intact parent fraction in blood ([5]; 30 min postinjection): 29%
intact parent fraction in blood ([5]; 60 min postinjection): 21%
tracer in blood ([5]; 120 min postinjection): still detectable in blood at 120 min, although at low levels
tracer binding in specimens from control subjects (CYP11B2; n = 3): 2.6 ± 1.8 kBq/cm^2
tracer binding in CYP11B2-negative areas in specimens from patients with PHA (CYP11B2; n = 4): 3.2 ± 1.1 kBq/cm^2
SB (specific binding) (CYP11B2; specimen 1a, case 1, PHA): 19.7 kBq/cm2
TB (total binding) (CYP11B2; specimen 1a, case 1, PHA): 20.1 kBq/cm2
NSB (non-specific binding) (CYP11B2; specimen 1a, case 1, PHA): 0.4 kBq/cm2
SB (specific binding) (CYP11B2; [8]): 8.6 kBq/cm2
TB (total binding) (CYP11B2; [8]): 17.9 kBq/cm2
NSB (non-specific binding) (CYP11B2; [8]): 9.3 kBq/cm2
SB (specific binding) (CYP11B2; specimen 1b (low), case 1, PHA): 4.8 kBq/cm2
TB (total binding) (CYP11B2; specimen 1b (low), case 1, PHA): 5.6 kBq/cm2
NSB (non-specific binding) (CYP11B2; specimen 1b (low), case 1, PHA): 0.9 kBq/cm2
SB (specific binding) (CYP11B2; specimen 2a, case 2, PHA): 2.5 kBq/cm2
TB (total binding) (CYP11B2; specimen 2a, case 2, PHA): 2.8 kBq/cm2
NSB (non-specific binding) (CYP11B2; specimen 2a, case 2, PHA): 0.3 kBq/cm2
SB (specific binding) (CYP11B2; [9]): 18.9 kBq/cm2
TB (total binding) (CYP11B2; [9]): 20.2 kBq/cm2
NSB (non-specific binding) (CYP11B2; [9]): 1.3 kBq/cm2
SB (specific binding) (CYP11B2; specimen 2b (low), case 2, PHA): 2.1 kBq/cm2
TB (total binding) (CYP11B2; specimen 2b (low), case 2, PHA): 2.4 kBq/cm2
NSB (non-specific binding) (CYP11B2; specimen 2b (low), case 2, PHA): 0.3 kBq/cm2
SB (specific binding) (CYP11B2; [10]): 19.1 kBq/cm2
TB (total binding) (CYP11B2; [10]): 20.0 kBq/cm2
NSB (non-specific binding) (CYP11B2; [10]): 1.0 kBq/cm2
SB (specific binding) (CYP11B2; specimen 2c (low), case 2, PHA): 3.0 kBq/cm2
TB (total binding) (CYP11B2; specimen 2c (low), case 2, PHA): 3.3 kBq/cm2
NSB (non-specific binding) (CYP11B2; specimen 2c (low), case 2, PHA): 0.3 kBq/cm2
SB (specific binding) (CYP11B2; specimen 3a, case 3, PHA): 6.8 kBq/cm2
TB (total binding) (CYP11B2; specimen 3a, case 3, PHA): 7.6 kBq/cm2
NSB (non-specific binding) (CYP11B2; specimen 3a, case 3, PHA): 0.7 kBq/cm2
SB (specific binding) (CYP11B2; [11]): 10.4 kBq/cm2
TB (total binding) (CYP11B2; [11]): 15.5 kBq/cm2
NSB (non-specific binding) (CYP11B2; [11]): 5.1 kBq/cm2
SB (specific binding) (CYP11B2; specimen 3b (low), case 3, PHA): 3.0 kBq/cm2
TB (total binding) (CYP11B2; specimen 3b (low), case 3, PHA): 4.3 kBq/cm2
NSB (non-specific binding) (CYP11B2; specimen 3b (low), case 3, PHA): 1.2 kBq/cm2
SB (specific binding) (CYP11B2; specimen 4a, case 4, PHA): 3.6 kBq/cm2
TB (total binding) (CYP11B2; specimen 4a, case 4, PHA): 4.2 kBq/cm2
NSB (non-specific binding) (CYP11B2; specimen 4a, case 4, PHA): 0.6 kBq/cm2
SB (specific binding) (CYP11B2; specimen 4b, case 4, PHA): 16.5 kBq/cm2
TB (total binding) (CYP11B2; specimen 4b, case 4, PHA): 18.4 kBq/cm2
NSB (non-specific binding) (CYP11B2; specimen 4b, case 4, PHA): 1.9 kBq/cm2
SB (specific binding) (CYP11B2; specimen 5a, case 5, PHA): 5.1 kBq/cm2
TB (total binding) (CYP11B2; specimen 5a, case 5, PHA): 5.9 kBq/cm2
NSB (non-specific binding) (CYP11B2; specimen 5a, case 5, PHA): 0.8 kBq/cm2
SB (specific binding) (CYP11B2; specimen 5b, case 5, PHA): 4.2 kBq/cm2
TB (total binding) (CYP11B2; specimen 5b, case 5, PHA): 5.1 kBq/cm2
NSB (non-specific binding) (CYP11B2; specimen 5b, case 5, PHA): 0.9 kBq/cm2
SB (specific binding) (CYP11B2; specimen 5c, case 5, PHA): 3.5 kBq/cm2
TB (total binding) (CYP11B2; specimen 5c, case 5, PHA): 4.5 kBq/cm2
NSB (non-specific binding) (CYP11B2; specimen 5c, case 5, PHA): 1.0 kBq/cm2
SB (specific binding) (CYP11B2; [12]): < LOQ; also recorded: limit of quantification
TB (total binding) (CYP11B2; [12]): < LOQ
NSB (non-specific binding) (CYP11B2; [12]): < LOQ
SB (specific binding) (CYP11B2; [13]): 4.0 kBq/cm2
TB (total binding) (CYP11B2; [13]): 5.3 kBq/cm2
NSB (non-specific binding) (CYP11B2; [13]): 1.3 kBq/cm2
SB (specific binding) (CYP11B2; [14]): 0.5 kBq/cm2
TB (total binding) (CYP11B2; [14]): 1.7 kBq/cm2
NSB (non-specific binding) (CYP11B2; [14]): 1.2 kBq/cm2
SB (specific binding) (CYP11B2; specimen 8a, case 8, Cushing's): 3.2 kBq/cm2
TB (total binding) (CYP11B2; specimen 8a, case 8, Cushing's): 3.7 kBq/cm2
NSB (non-specific binding) (CYP11B2; specimen 8a, case 8, Cushing's): 0.5 kBq/cm2
IC50 (human CYP11B2 [1]): 4.7 nM
IC50 (hCYP11B1): 435 nM
